Key:
[1] = tested on: J774; test: Cytotoxicity against mouse J774 cells assessed as reduction in cell viability after 48 hrs; format: functional, cell-based; conditions: J774, 48 h
[2] = Inhibition of RGGT assessed as [3H]GGPP incorporation into Rab1a protein after 30 mins
[3] = Inhibition of RGGT in cell-based assay assessed as inhibition of Rab11 prenylation after 24 hrs by Western blot analysis

| IC50 [2] [µM] | Structure (SMILES) | IC50 [1] [µM] | LED [3] [µM] |
| --- | --- | --- | --- |
| 6.11 | O=C(O)C(F)(Cc1cnc2ccccn12)P(=O)(O)O (stereo not given) | 60 | 6 |
| 13.4 | O=C(O)C(Cc1cnc2ccccn12)P(=O)(O)O (racemic) | > 600 | 12 |
| 7.5 | O=C(O)C(Cl)(Cc1cnc2ccccn12)P(=O)(O)O (racemic) | > 400 | 12 |
| 5.56 | O=C(O)C(Br)(Cc1cnc2ccccn12)P(=O)(O)O (racemic) | > 600 | 25 |
| 1.24 | O=C(O)C(O)(Cc1cnc2ccccn12)P(=O)(O)O (racemic) [(2-HYDROXY-3-IMIDAZO[1,2-A]PYRIDIN-3-YL-2-PHOSPHONOPROPIONIC ACID (ENANTIONMERS)] | 50 | 3 |

Source: ChEMBL document CHEMBL1828594, “Synthesis, stereochemistry and SAR of a series of minodronate analogues as RGGT inhibitors” (Eur J Med Chem, 2011)
